Data from PubChem BioAssay (NCI).
Where “and” joins values, the source holds several entries; their conditions need not be identical. Equal entries are not always repeated.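 Five compound concentrations were applied to cells in 96-well plates for 48 hours; endpoints were derived by simple linear interpolation of the resulting dose-response curve. Abbreviation: GI50, concentration required for 50% inhibition of growth. TGI is the concentration that stops growth completely.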

What was measured:
Assay in all cases: NCI tumour cell line growth inhibition, 48 h
MDA-N = tested on: MDA-N
DLD-1 colon = tested on: DLD-1 colon
DMS 273 small cell lung = tested on: DMS 273 small cell lung
KM20L2 colon = tested on: KM20L2 colon
M19-MEL melanoma = tested on: M19-MEL melanoma
RXF-631 renal = tested on: RXF-631 renal
SNB-78 CNS = tested on: SNB-78 CNS
P388 leukemia = tested on: P388 leukemia
P388/ADR leukemia = tested on: P388/ADR leukemia
SN12K1 renal = tested on: SN12K1 renal

SMILES	TGI (MDA-N)	TGI (DLD-1 colon)	TGI (DMS 273 small cell lung)	TGI (KM20L2 colon)	TGI (M19-MEL melanoma)	TGI (SNB-78 CNS)	other results
CC1NCCC(CC(=O)O)C1CC(=O)O (stereo not given)	> 100 µM						
OCC1OC(N2CCN(C3OC(CO)C(O)C(O)C3O)CC2)C(O)C(O)C1O (stereo not given)	> 100 µM						
O=C(Nc1ccc(-c2cn3ccccc3n2)cc1)c1cc(Br)ccc1O	> 100 µM						
OCC1OC(NO)C(O)C(O)C1O (stereo not given)		> 100 µM	> 100 µM	> 100 µM	> 100 µM	> 100 µM	TGI (RXF-631 renal): > 100 µM
COc1ccc(C2[C@@H](Cl)C(=O)N2c2ccc(OC)cc2)cc1 (stereo not given in full)		> 100 µM	> 100 µM		> 100 µM	> 100 µM	
O=S1(=O)CC#CC[C@@H](CO)[C@@H](CO)CC#CC1		> 100 µM		> 100 µM	> 100 µM	> 100 µM	
CN(N=O)N1C(=O)SCC(c2ccccc2)(c2ccccc2)C1=O	> 100 µM						
CC1=NN(c2ccccc2)C(=O)C1N=Nc1ccc(Br)cc1C (stereo not given)		> 100 µM	> 100 µM	> 100 µM	> 100 µM	> 100 µM	TGI (RXF-631 renal): > 100 µM
CC(C)(C)c1cc([Si](C)(C)C)c(C#N)c([Si](C)(C)C)c1		> 100 µM	> 100 µM	> 100 µM	> 100 µM	> 100 µM	
O=c1[nH]c(C2CCCCC2)nc2ccc(Cl)cc12			> 100 µM	> 100 µM	> 100 µM	> 100 µM	
CCn1c(C)nc([N+](=O)[O-])c1Sc1ncc[nH]1		> 100 µM	> 100 µM		> 100 µM	> 100 µM	TGI (RXF-631 renal): 88 µM
Cc1ccccc1C1SCc2nc3ccccc3n21 (stereo not given)		> 100 µM	> 100 µM		> 100 µM	> 100 µM	
CC1O[C@@H]2CCCCC(=O)[C@]2(C)[C@H]1C (stereo not given in full)		> 100 µM	> 100 µM	> 100 µM	> 100 µM	> 100 µM	TGI (RXF-631 renal): > 100 µM
O=C(NNC(=O)/C(=C/c1cccc([N+](=O)[O-])c1)NC(=O)c1ccccc1)Nc1ccc(Cl)cc1		26.7 µM	26.1 µM	32.4 µM	29.1 µM	> 100 µM	TGI (RXF-631 renal): 23.8 µM
O/N=C1/C(=C/c2ccc(Br)cc2)CCCC1C(NO)c1ccc(Br)cc1 (stereo not given)			25.8 µM	32.5 µM	32.1 µM	32.6 µM	TGI (RXF-631 renal): 30.8 µM
Cc1c2cc[n+](C)cc2c(C)c2c1[nH]c1ccc(OC(C)(C)C)cc12		> 100 µM	> 100 µM		> 100 µM	> 100 µM	
Clc1cc2ns[s+]c2cc1Cl		> 56.5 µM	> 100 µM	> 100 µM	> 100 µM	> 100 µM	TGI (RXF-631 renal): > 100 µM
C=C1CC2(CC(c3ccccc3C)OC(c3ccccc3C)C2)OC1=O (stereo not given)	3.32 µM						
C/C=C1/CN2CCC34c5ccccc5N5C(=O)C(C6CC78c9ccccc9N9C(=O)C=CC(C%10CC7N6C/C%10=C/C)C98)=CC(C1CC23)C54 (stereo not given)	12.7 µM and 13.3 µM						GI50 (MDA-N): 3.51 µM
Cc1cc(NCCCCCCCCNc2cc(C)nc3cc(N(C)C)ccc23)c2ccc(N(C)C)cc2n1			16.5 µM	27.3 µM	10.8 µM	> 100 µM	
CN1C(=O)CC(CC(=O)C2CCCCC2=O)CC1=O (stereo not given)		> 100 µM	> 100 µM	> 100 µM	> 100 µM	> 100 µM	

SMILES	TGI (MDA-N)	TGI (DLD-1 colon)	TGI (DMS 273 small cell lung)	TGI (KM20L2 colon)	TGI (M19-MEL melanoma)	TGI (SNB-78 CNS)	other results
OC(CBr)C(O)C(O)C(O)CBr (stereo not given)	> 100 µM	> 100 µM	> 100 µM	> 100 µM	> 100 µM	> 100 µM	TGI (P388 leukemia): > 32.4 µM; TGI (P388/ADR leukemia): > 51.9 µM; TGI (SN12K1 renal): > 100 µM
Nc1[nH]c(=S)[nH]c(=O)c1N=Nc1c(Br)cc(S(N)(=O)=O)cc1Br	> 100 µM						
O=C(C#Cc1ccccc1)N1CCCCC1	> 100 µM						
O=C(Nc1ccn(C2CCC(COC(c3ccccc3)(c3ccccc3)c3ccccc3)O2)c(=O)n1)c1ccccc1 (stereo not given)	10.5 µM						
COc1ccc(NC(=O)CC2SC(=Nc3ccc(Cl)cc3C)NC2=O)c([N+](=O)[O-])c1 (stereo not given)		> 100 µM	> 100 µM	> 100 µM	> 100 µM	> 100 µM	TGI (RXF-631 renal): > 100 µM
COC(=O)C1(N2CCOCC2)CCC([C@@H](c2ccccc2)C(C)[N+](=O)[O-])C1 (stereo not given in full)	> 100 µM						
CCCCCCCCCCCCCC(=O)OCC1OC(=O)C(O)C1O (stereo not given)		> 100 µM		> 100 µM	> 100 µM		
CC#CC#C/C=C1/C=CC2(CCCCO2)O1 (stereo not given)	> 100 µM						
COc1ccc(CC2OC3(CCCCC3)CC3CCCCN32)cc1 (stereo not given)	> 100 µM						
COC(=O)/C(=C1\OC(=O)C(c2ccc(Cl)cc2)=C1O)c1ccc(Cl)cc1		> 100 µM	36.3 µM	88.4 µM	66.2 µM	> 100 µM	
NS(=O)(=O)c1ccc(NC(=O)Nc2cccc3ccccc23)cc1	> 100 µM						
O=C1/C(=C/c2ccc(C(=O)O)cc2)CNC/C1=C\c1ccc(C(=O)O)cc1		> 100 µM	> 100 µM	> 100 µM	> 100 µM	> 100 µM	TGI (RXF-631 renal): > 100 µM
COc1cc(OC)c(OC)cc1/C=C/c1ccc2ccccc2n1	> 10 µM						
O=S1c2ccccc2N=C(c2cccs2)CC1c1ccccc1O (stereo not given)		> 100 µM		> 100 µM	> 100 µM		TGI (RXF-631 renal): > 100 µM
C/C(COc1ccccc1)=N\NC(N)=S		> 100 µM	> 100 µM	> 100 µM	> 100 µM	> 100 µM	
Oc1ccc(Cl)cc1N=Nc1c(O)ccc2ccccc12	> 100 µM						
NC1=NN(c2ccccc2)C(=O)C1/C(=N\NC(=O)c1cc2ccccc2cc1O)C(=O)Nc1ccc(Cl)c(Cl)c1 (stereo not given)		> 100 µM	40.7 µM	65.8 µM		> 100 µM	
CCN(CC(O)COc1ccc2c(c1)[n+]([O-])nc(N)[n+]2[O-])C(C)=O (stereo not given)	> 100 µM						
S=C1NC(c2ccccc2)NC(c2ccccc2)S1 (stereo not given)	> 100 µM						
Cc1ccc(O)c(C(=O)/C=C/c2ccccc2)c1	> 100 µM						
